Where two headings read alike, the source gives them in different places.
Tests used:
KAT-6A = KAT-6A (Homo sapiens (Human), UniProt Q92794); assay: KAT-6A biochemical inhibition assay (SAMDI mass spectrometry)
Experimental: (§1) KAT-6A. Enzyme assay buffer was 50 mM Tris pH 8.0, 0.002% Tween20, 0.005% bovine skin gelatin, and 1 mM dithiothreitol (DTT). For determination of IC50 values, compounds were serially diluted with 2% (v/v) DMSO in the final reaction, pre-incubating each dilution of each compound with 40 μL of assay buffer containing KAT-6A enzyme (12.5 nM final concentration). 10 μL of assay buffer containing 1 μM peptide substrate and 1 μM acetyl coenzyme A (final concentrations) was added. Reactions (50 μL total) were then carried out at 25° C. for 90 minutes. Reactions were terminated by the addition of 0.5% formic acid (final concentration), and a sample of each reaction was analyzed by SAMDI Tech, Inc. (Chicago, Ill.) using self-assembled monolayer desorption/ionization time-of-flight mass spectrometry (Mrksich, M. (2008) Mass spectrometry of self-assembled monolayers: a new tool for molecular surface science. ACS Nano 2, 7-18).

KAT-8 = KAT-8 (Homo sapiens (Human), UniProt Q9H7Z6); assay: KAT-8 biochemical inhibition assay (SAMDI mass spectrometry)
Sequence of KAT-8 (Q9H7Z6 other isoform, or with tags, fused parts or gaps): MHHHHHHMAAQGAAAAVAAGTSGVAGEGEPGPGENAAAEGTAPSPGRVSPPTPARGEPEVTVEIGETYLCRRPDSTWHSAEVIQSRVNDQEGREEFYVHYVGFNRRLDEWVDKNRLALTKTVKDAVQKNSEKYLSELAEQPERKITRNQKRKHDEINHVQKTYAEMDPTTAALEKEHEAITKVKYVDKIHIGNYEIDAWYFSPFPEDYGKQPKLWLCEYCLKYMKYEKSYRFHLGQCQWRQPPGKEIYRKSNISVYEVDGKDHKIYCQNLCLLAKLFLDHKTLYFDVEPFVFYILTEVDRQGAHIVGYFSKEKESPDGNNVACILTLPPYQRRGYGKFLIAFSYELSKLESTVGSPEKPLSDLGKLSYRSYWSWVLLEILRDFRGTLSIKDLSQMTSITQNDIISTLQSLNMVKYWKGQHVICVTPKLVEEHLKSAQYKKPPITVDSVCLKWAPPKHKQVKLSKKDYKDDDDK
Experimental: as §1, with “KAT-8. Enzyme assay” for “KAT-6A. Enzyme assay”, “buffer containing KAT-8 enzyme (12.5” for “buffer containing KAT-6A enzyme (12.5”, “substrate and 5 μM acetyl” for “substrate and 1 μM acetyl”

KAT-5 = KAT-5 (Homo sapiens (Human), UniProt Q92993); assay: KAT-5 biochemical inhibition assay (SAMDI mass spectrometry)
Sequence of KAT-5 (Q92993 other isoform, or with tags, fused parts or gaps): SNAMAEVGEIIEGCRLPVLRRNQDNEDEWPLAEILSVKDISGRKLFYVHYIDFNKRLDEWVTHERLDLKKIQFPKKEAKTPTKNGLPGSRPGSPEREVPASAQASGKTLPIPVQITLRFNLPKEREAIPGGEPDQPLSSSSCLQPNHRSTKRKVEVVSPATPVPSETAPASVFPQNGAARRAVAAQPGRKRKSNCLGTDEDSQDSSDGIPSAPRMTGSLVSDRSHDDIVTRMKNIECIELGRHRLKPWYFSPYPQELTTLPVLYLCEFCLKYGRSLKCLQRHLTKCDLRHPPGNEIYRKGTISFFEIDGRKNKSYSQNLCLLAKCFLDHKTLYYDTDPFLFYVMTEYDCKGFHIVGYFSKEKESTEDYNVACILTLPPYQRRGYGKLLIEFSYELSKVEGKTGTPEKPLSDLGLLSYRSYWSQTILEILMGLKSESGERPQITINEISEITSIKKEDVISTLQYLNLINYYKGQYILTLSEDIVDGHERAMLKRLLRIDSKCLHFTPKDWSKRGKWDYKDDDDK
Experimental: as §1, with “KAT-5. Enzyme assay” for “KAT-6A. Enzyme assay”, “buffer containing KAT-5 enzyme (9” for “buffer containing KAT-6A enzyme (12.5”, “KAT-5 enzyme (9 nM final” for “KAT-6A enzyme (12.5 nM final”, “substrate and 0.5 μM acetyl” for “substrate and 1 μM acetyl”

KAT-7 = KAT-7 (Homo sapiens (Human), UniProt O95251); assay: KAT-7 biochemical inhibition assay (SAMDI mass spectrometry)
Sequence of KAT-7 (O95251 other isoform, or with tags, fused parts or gaps): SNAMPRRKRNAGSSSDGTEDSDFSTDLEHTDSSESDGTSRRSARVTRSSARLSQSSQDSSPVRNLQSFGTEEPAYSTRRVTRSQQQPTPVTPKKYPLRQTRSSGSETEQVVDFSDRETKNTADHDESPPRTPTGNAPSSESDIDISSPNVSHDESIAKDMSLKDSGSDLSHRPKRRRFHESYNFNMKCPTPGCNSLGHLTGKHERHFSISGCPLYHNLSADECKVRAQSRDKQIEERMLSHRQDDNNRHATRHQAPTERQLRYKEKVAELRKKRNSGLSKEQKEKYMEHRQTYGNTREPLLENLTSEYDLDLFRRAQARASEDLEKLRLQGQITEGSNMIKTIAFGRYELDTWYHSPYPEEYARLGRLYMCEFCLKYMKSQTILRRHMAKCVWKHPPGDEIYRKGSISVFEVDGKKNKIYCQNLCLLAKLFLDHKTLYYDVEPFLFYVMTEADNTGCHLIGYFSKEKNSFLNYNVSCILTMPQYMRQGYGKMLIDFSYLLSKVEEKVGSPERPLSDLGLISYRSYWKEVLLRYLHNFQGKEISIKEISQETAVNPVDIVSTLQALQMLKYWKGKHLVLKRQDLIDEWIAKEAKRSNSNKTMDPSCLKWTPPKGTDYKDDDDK
Experimental: as §1, with “KAT-7. Enzyme assay” for “KAT-6A. Enzyme assay”, “buffer containing KAT-7 enzyme (6” for “buffer containing KAT-6A enzyme (12.5”, “KAT-7 enzyme (6 nM final” for “KAT-6A enzyme (12.5 nM final”, “substrate and 2 μM acetyl” for “substrate and 1 μM acetyl”, “C. for 120 minutes. Reactions” for “C. for 90 minutes. Reactions”

Sequence of KAT-6A (Q92794 other isoform, or with tags, fused parts or gaps): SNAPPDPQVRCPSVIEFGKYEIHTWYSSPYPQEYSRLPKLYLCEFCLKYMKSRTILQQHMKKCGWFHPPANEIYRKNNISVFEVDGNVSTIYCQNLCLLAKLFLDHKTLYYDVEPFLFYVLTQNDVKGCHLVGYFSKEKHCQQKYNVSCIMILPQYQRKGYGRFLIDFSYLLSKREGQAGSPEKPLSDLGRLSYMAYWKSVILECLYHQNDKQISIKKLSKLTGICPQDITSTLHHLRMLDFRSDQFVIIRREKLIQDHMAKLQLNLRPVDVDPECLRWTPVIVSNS

| Compound | IC50 (KAT-6A) | IC50 (KAT-8) | IC50 (KAT-5) | IC50 (KAT-7) | IC50 (KAT-6A; Table 5) | IC50 (KAT-5; Table 5) | IC50 (KAT-7; Table 5) |
| --- | --- | --- | --- | --- | --- | --- | --- |
| CCNC(=O)N(C)[C@H]1CC[C@@H](CS(=O)(=O)NNC(=O)c2cc(-c3cn(C)cn3)cc(Cl)c2F)CC1 [Compound I-363] | 10 to 50 µM | 10 to 50 µM | < 10 µM | < 10 µM |  |  |  |
| COCCn1cnc(-c2cc(C)c(F)c(C(=O)NNS(=O)(=O)CC3CCOCC3)c2)c1 [Compound I-140] | 10 to 50 µM | > 100 µM | 10 to 50 µM | < 10 µM |  |  |  |
| Cn1cnc(-c2cc(Cl)c(F)c(C(=O)NNS(=O)(=O)CC3CCN(C(=O)CO)C3)c2)c1 (centres unmarked) [Compound I-89] | 10 to 50 µM | 10 to 50 µM | 10 to 50 µM | < 10 µM |  |  |  |
| CNC(=O)N[C@H]1C[C@@H](CS(=O)(=O)NNC(=O)c2cc(-c3cn(C)cn3)cc(Cl)c2F)C1 [Compound I-197] |  | 10 to 50 µM |  |  |  |  |  |
| Cn1cnc(-c2cc(Cl)c(F)c(C(=O)NNS(=O)(=O)CC3CCC(C)(C)CC3)c2)c1 [Compound I-396] | < 10 µM | 10 to 50 µM | < 10 µM |  |  |  |  |
| COc1ccc(COc2cccc(S(=O)(=O)NNC(=O)c3cc(-c4cn(C)cn4)cc(Cl)c3F)c2)cc1 [Compound I-397] |  | > 100 µM |  |  |  |  |  |
| CC(C)S(=O)(=O)N1CCCC(CS(=O)(=O)NNC(=O)c2cc(-c3cn(C)cn3)cc(Cl)c2F)C1 (centres unmarked) [Compound I-98] |  | 10 to 50 µM | < 10 µM | < 10 µM |  |  |  |
| CNC1CC(CS(=O)(=O)NNC(=O)c2cc(-c3cn(C)cn3)cc(Cl)c2F)C1 (centres unmarked) [Compound I-395] | 10 to 50 µM | > 100 µM | 10 to 50 µM |  |  |  |  |
| Cn1cnc(-c2cc(Cl)c(F)c(C(=O)NNS(=O)(=O)c3cccc(O)n3)c2)c1 [Compound I-391] | < 10 µM | 50 to 100 µM | < 10 µM |  |  |  |  |
| Cn1cnc(-c2cc(Cl)c(F)c(C(=O)NNS(=O)(=O)CC3CCOC3)c2)c1 (centres unmarked) [Compound I-272] | < 10 µM | 10 to 50 µM | < 10 µM |  |  |  |  |
| Cn1cnc(-c2cc(Cl)c(F)c(C(=O)NNS(=O)(=O)CC3CCCO3)c2)c1 (centres unmarked) [Compound I-276] | < 10 µM | 10 to 50 µM | < 10 µM |  |  |  |  |
| C[C@@H]1CNC[C@H]1CS(=O)(=O)NNC(=O)c1cc(-c2cn(C)cn2)cc(Cl)c1F [Compound I-263] | 10 to 50 µM | 10 to 50 µM | 10 to 50 µM |  |  |  |  |
| Cn1cnc(-c2cc(Cl)c(F)c(C(=O)NNS(=O)(=O)c3cccc(N)n3)c2)c1 [Compound I-392] | < 10 µM | > 100 µM | < 10 µM |  |  |  |  |
| CCNC(=O)N1C[C@H](CS(=O)(=O)NNC(=O)c2cc(-c3cn(C)cn3)cc(Cl)c2F)[C@@H](C)C1 [Compound I-271] | 10 to 50 µM | 10 to 50 µM | 10 to 50 µM |  |  |  |  |
| Cn1cnc(-c2cc(Cl)c(F)c(C(=O)NNS(=O)(=O)CC34CC5CC(CC(C5)C3)C4)c2)c1 [Compound I-275] | < 10 µM | 10 to 50 µM | < 10 µM |  |  |  |  |
| Cn1cnc(-c2cc(Cl)c(F)c(C(=O)NNS(=O)(=O)CC3CCCCO3)c2)c1 (centres unmarked) [Compound I-279] | < 10 µM | 10 to 50 µM | < 10 µM |  |  |  |  |
| Cn1cnc(-c2cc(Cl)c(F)c(C(=O)NNS(=O)(=O)C[C@H]3CC[C@H]4CC[C@@H]3N4C(=O)OC(C)(C)C)c2)c1 [Compound I-259] | 10 to 50 µM | 10 to 50 µM | < 10 µM |  |  |  |  |
| COC1CCC(CS(=O)(=O)NNC(=O)c2cc(-c3cn(C)cn3)cc(Cl)c2F)CC1 (centres unmarked) [Compound I-278] | < 10 µM | 10 to 50 µM | < 10 µM |  |  |  |  |
| CN(CCOc1ccc(S(=O)(=O)NNC(=O)c2cc(-c3cn(C)cn3)cc(Cl)c2F)cc1)C(=O)OC(C)(C)C [Compound I-394] | 10 to 50 µM | > 100 µM | 10 to 50 µM |  |  |  |  |
| CC(=O)N1[C@H]2CC[C@@H](CS(=O)(=O)NNC(=O)c3cc(-c4cn(C)cn4)cc(Cl)c3F)[C@@H]1CC2 [Compound I-277] | < 10 µM | 10 to 50 µM | < 10 µM |  |  |  |  |

| Compound | IC50 (KAT-6A) | IC50 (KAT-8) | IC50 (KAT-5) | IC50 (KAT-7) | IC50 (KAT-6A; Table 5) | IC50 (KAT-5; Table 5) | IC50 (KAT-7; Table 5) |
| --- | --- | --- | --- | --- | --- | --- | --- |
| Cn1cnc(-c2cc(Cl)c(F)c(C(=O)NNS(=O)(=O)CC3CCCC(NC(=O)Cc4ccccn4)C3)c2)c1 (centres unmarked) [Compound I-268] | < 10 µM | 10 to 50 µM | < 10 µM |  |  |  |  |
| CCc1cccc(S(=O)(=O)NNC(=O)c2cc(-c3ccccn3)cc(Cl)c2F)c1 [Compound I-478] | < 10 µM |  | < 10 µM | < 10 µM |  |  |  |
| Cn1cnc(-c2cc(Cl)c(F)c(C(=O)NNS(=O)(=O)Cc3ccnn3C)c2)c1 [Compound I-480] | 10 to 50 µM |  | 10 to 50 µM | < 10 µM |  |  |  |
| Cc1cccc(-c2cc(Cl)c(F)c(C(=O)NNS(=O)(=O)C(C)C3CCCN(C(=O)OC(C)(C)C)C3)c2)c1 (centres unmarked) [Compound A-23] |  |  |  |  | > 100 µM | > 100 µM | ≤ 1 µM |
| Cc1cccc(-c2cc(Cl)c(F)c(C(=O)NNS(=O)(=O)CC3CNC3)c2)c1 [Compound A-13] |  |  |  |  | > 100 µM | > 100 µM | 10 to 50 µM |
| COC1CCCC(CS(=O)(=O)NNC(=O)c2cc(-c3cn(C)cn3)cc(Cl)c2F)C1 (centres unmarked) [Compound I-270] | < 10 µM | 10 to 50 µM | < 10 µM |  |  |  |  |
| Cn1cnc(-c2cc(Cl)c(F)c(C(=O)NNS(=O)(=O)CC3CCC(OCCO)CC3)c2)c1 (centres unmarked) [Compound I-467] | < 10 µM |  | < 10 µM | < 10 µM |  |  |  |
| Cc1cccc(-c2cc(Cl)c(F)c(C(=O)NNS(=O)(=O)CC3CN(C(=O)OC(C)(C)C)C3)c2)c1 [Compound A-12] |  |  |  |  | 10 to 50 µM | 10 to 50 µM | ≤ 10 µM |
| CN(C(=O)OC(C)(C)C)C1CC(CS(=O)(=O)NNC(=O)c2cc(-c3cn(C)cn3)cc(Cl)c2F)C1 (centres unmarked) [Compound I-390] | 10 to 50 µM | > 100 µM | < 10 µM |  |  |  |  |
| Cn1cnc(-c2cc(Cl)c(F)c(C(=O)NNS(=O)(=O)CC3CCCOC3)c2)c1 (centres unmarked) [Compound I-273] | < 10 µM | 10 to 50 µM | < 10 µM |  |  |  |  |
| O=C(NNS(=O)(=O)c1cccc(O)c1)c1cc(-c2ccccn2)cc(Cl)c1F [Compound I-481] | < 10 µM |  | < 10 µM | < 10 µM |  |  |  |
| Cn1cnc(-c2cc(Cl)c(F)c(C(=O)NNS(=O)(=O)C[C@H]3CC[C@H](NC(=O)c4ccncc4)CC3)c2)c1 [Compound I-269] | < 10 µM | 10 to 50 µM | < 10 µM |  |  |  |  |
| Cn1cnc(-c2cc(Cl)c(F)c(C(=O)NNS(=O)(=O)c3cccc(NCc4ccccc4)n3)c2)c1 [Compound I-393] | < 10 µM | > 100 µM | < 10 µM |  |  |  |  |
| Cn1cnc(-c2cc(Cl)c(F)c(C(=O)NNS(=O)(=O)Cc3ccn(C)n3)c2)c1 [Compound I-479] | < 10 µM |  | < 10 µM | < 10 µM |  |  |  |
| Cc1cccc(-c2cc(Cl)c(F)c(C(=O)NNS(=O)(=O)CC3CN(C)CCN3C)c2)c1 (centres unmarked) [Compound A-17] |  |  |  |  | 10 to 50 µM | > 100 µM | ≤ 10 µM |
| Cc1c(-c2cc(Cl)c(F)c(C(=O)NNS(=O)(=O)CC3CCCCC3)c2)ncn1C [Compound I-38] |  | > 100 µM | < 10 µM | < 10 µM |  |  |  |
| CC(=O)NC1CCCC(CS(=O)(=O)NNC(=O)c2cc(-c3cn(C)cn3)cc(Cl)c2F)C1 (centres unmarked) [Compound I-99] |  | 10 to 50 µM | < 10 µM | < 10 µM |  |  |  |
| CN(C(=O)OC(C)(C)C)C1CCCC(CS(=O)(=O)NNC(=O)c2cc(-c3cn(C)cn3)cc(Cl)c2F)C1 (centres unmarked) [Compound I-274] | < 10 µM | 10 to 50 µM | < 10 µM |  |  |  |  |
| Cc1cccc(-c2cc(Cl)c(F)c(C(=O)NNS(=O)(=O)C3CCC(NC(=O)OC(C)(C)C)C3)c2)c1 (centres unmarked) [Compound A-19] |  |  |  |  | 50 to 100 µM | 10 to 50 µM | ≤ 10 µM |
